# System: Plasmodium falciparum
# Test: GSK_TCMDC: Inhibition of Plasmodium falciparum 3D7 in whole erythrocytes, using parasite LDH activity as an index of growth.
# Type: functional, organism-based
# Settings: Plasmodium falciparum, 3D7
row,SMILES,XC50 [nM]
1,ON=C1CCc2cc(-c3cc(-c4ccc(OC5CCNCC5)cc4)oc3-c3ccncc3)ccc21,157
2,CCN(CC)CCNc1ccnc2[nH]c3ccc(C)cc3c12,669
3,Nc1c(Cl)cc(C(O)CNCCCCCOCCCc2ccc3ncccc3c2)cc1Cl (configuration not stated),978
4,N#Cc1ccc(N/C(=N\c2cccc(Cl)c2Cl)NC2Cc3ccccc3C2)c(O)c1,832
5,CCN(CC)C(=O)c1cccc(C=Cc2ccc(-c3c(C)[nH]c(C)c(Cl)c3=O)cc2)c1,259
6,CC(C)c1ccc(NC(=O)c2ccc(C(=O)NCC3CCN(CC4CCCCC4)CC3)cc2)cc1,900
7,COCCCNC(=O)[C@H]1CNCCN1C(=O)c1ccccc1,802
8,CS(=O)(=O)c1ccccc1CNC(=O)c1ccc(-c2cccc(-c3nc4cc(C(F)(F)F)ccc4[nH]3)c2)cc1,866
9,CN(C)CCNCc1cccc(-c2ccc3c(Nc4cc(O)c(Cl)cc4F)ccnc3c2)c1,549
10,CC(C)n1nc(C(=O)N2CCN(c3ccccc3)CC2)c2ccccc2c1=O,979
11,CNC(=O)COC(=O)c1c2c(nc3ccccc13)C(=Cc1ccc3c(c1)OCO3)CCC2,643
12,CC1CCCCC1N(C)C1CCN(CCCNC(=O)C=Cc2cccc(C(F)(F)F)c2)CC1 (configuration not stated),772
13,CCOc1ccc(Nc2ccc3nonc3c2S(=O)(=O)Nc2ccc(OCC)cc2)cc1,505
14,O=C(Nc1nc(-c2cc(F)ccc2F)cs1)c1cncc(Br)c1,1080
15,Cc1nc(-c2cccc(Nc3ccnc4cc(-c5nccs5)ccc34)c2)no1,322
16,CN(C)CCOc1cc(NC(=O)Nc2ccc(-c3ccncc3)c(C(F)(F)F)c2)ccc1Cl,991
17,COc1ccc(C(F)(F)F)cc1N1CCN(CCCCNC(=O)c2ccc(NC(=O)c3ccc(Cl)cc3)cc2)CC1,909
18,N=C(N)NC(=O)Nc1cc(Br)c(Br)c(Br)c1,809
19,Cn1c(N)c(N=O)c(=O)[nH]c1=O,176
20,COc1ccc(-c2nc3cc4ccccc4nc3[nH]2)c(OCC(O)CNC(C)C)c1 (configuration not stated),694
21,Cc1[nH]c(C)c(-c2ccc(Nc3ccc(C(F)(F)F)cn3)cc2)c(=O)c1Br,26
22,OCC1CCN(Cc2cccc(-c3cccc(-c4nc5cc(C(F)(F)F)ccc5[nH]4)c3)c2)CC1,506
23,Cc1ccc(C2CCN(CCCCNC(=O)c3ccc(-c4ccc(C#N)cc4)cc3)CC2)c(O)c1,292
24,COc1ccc2ncc(F)c([C@H](O)CN3CCC(NCc4cc5c(cn4)OCCO5)CC3)c2c1,292
25,CCCCCCc1cc(Oc2c(I)cc(C[C@H](N)C(=O)O)cc2I)ccc1O,906

row,SMILES,XC50 [nM]
1,CC[C@@H]([C@@H](CC(C)C)C(=O)N[C@@H](CCCCNC(=O)OCc1ccccc1)C(=O)Nc1ccccn1)N(O)C=O,108
2,O=C(NCCCCN1CCC(c2ccc3ccccc3c2)CC1)c1ccc(NC(=O)c2ccc(Cl)cc2)cc1,226
3,COc1ccc(-c2csc(C(=O)NC3CCC(N4CCC(c5ccccc5C)CC4)CC3)c2)cc1 (configuration not stated),378
4,CCCc1cn2c3c(cc(C(=O)N[C@@H](Cc4ccccc4)[C@H](O)CNC4CCOCC4)cc13)N(C)S(=O)(=O)CC2,47.7
5,NC1CCN(c2cnn(Cc3cccc(NC(=O)Nc4ccc(-c5ccccc5)cc4)c3)c(=O)c2Cl)CC1,1140
6,Cc1ccc(C(=O)Nc2ccnc(N(C)C3CCN(Cc4cccc(O)c4)CC3)c2)cn1,1880
7,N=C(N)NN=Cc1c2ccccc2c(Cl)c2cc(Cl)ccc12,791
8,Cc1[nH]c(C)c(-c2ccc(-c3ccc(C(F)(F)F)cc3C(F)(F)F)nc2)c(=O)c1Br,187
9,CCN(c1cc(C)nc(Nc2ccc(Cl)cc2)n1)[C@H]1CCN(Cc2ccccc2)C1,855
10,O=[N+]([O-])c1cccc(CNCC2CCN(Cc3ccc(Cl)c(Cl)c3)CC2)c1,913
11,CCCCCCC(C)c1cc(O)c2c(c1)OC(C)(C)c1ccncc1-2 (configuration not stated),797
12,O=C(Nc1cccc2ccccc12)N1CCC(NS(=O)(=O)c2cccc(C(F)(F)F)c2)CC1,913
13,O=C(Nc1ccc([N+](=O)[O-])cc1Cl)c1cc2ccccc2cc1O,1010
14,CN(C)CCOc1cc(NC(=O)Nc2ccc(Cl)cc2C(F)(F)F)ccc1I,930
15,Oc1cccc(Nc2nc(NCC3CCCO3)c3ccccc3n2)c1 (configuration not stated),812
16,CN(CCCCN)Cc1ccc(-c2ccc(Cl)cc2)cc1,882
17,Cc1sc(CNCCCNc2cc(=O)c3ccccc3[nH]2)cc1Br,764
18,CNCCNCc1ccc(-c2ccc(-c3nc4ccccc4[nH]3)s2)cc1,865
19,O=C(Nc1ccc2oc(-c3ccc(Cl)cc3Cl)nc2c1)c1ccc([N+](=O)[O-])o1,1100
20,Cn1cnc(CCNC(=O)c2ccc(-c3ccc(-c4nc5cc(C(F)(F)F)ccc5[nH]4)s3)cc2)c1,402
21,O=C(Nc1ccc(OC2CCN(Cc3ccsc3)CC2)c(Cl)c1)c1ccc(F)cc1,647
22,CC(C)(C)c1ccc(CNC(=O)/C=C/c2ccc(-c3nc4cc(C(C)(C)C)ccc4[nH]3)cc2)cc1,545
23,Cc1cccc(C=NN=c2cc(C)[nH]c3ccc(F)cc23)n1,1000
24,CC(CNC(=O)C(c1cc2ccccc2o1)N1CCN(C(c2ccccc2)c2ccccc2)CC1)c1ccccc1 (configuration not stated),626
25,CCN(CC)S(=O)(=O)c1ccc(CCOCCCCCNCC(O)c2cc(Cl)c(N)c(Cl)c2)s1 (configuration not stated),858

row,SMILES,XC50 [nM]
1,CN(C)C(=O)CCCn1c(CNCCCNc2cc(=O)c3ccccc3[nH]2)cc2c(Cl)cc(Cl)cc21,1190
2,CC(C)C1=C[C@H]2C[C@]3(C4OCCO4)[C@@H]4CC[C@@H](C)[C@H]4C[C@@]2(COCc2cccc(C#N)c2)[C@]13C(=O)OC(c1ccccc1)c1ccccc1,1790
3,O=C(Cc1ccc(NC(=O)c2ccc(O)c(-c3ccc(Cl)c(Cl)c3)c2)cc1)NCCN1CCCCC1,841
4,Oc1c(Cl)cc(-c2ccccc2)cc1CNC1CCCCC1,749
5,CCOc1cc(C)ccc1NC1CCN(CCCCNC(=O)c2ccc(NC(=O)c3ccc(Cl)cc3)cc2)CC1,714
6,COc1ccc(NC(=O)/C=C/c2ccc(-c3ccccc3)cc2)cc1N1CCN(C)CC1,906
7,Cc1cccc(C)c1CNc1ccnc2cc(Br)ccc12,172
8,N#Cc1ccc2c(c1)CCN(CCC1CCC(NC(=O)/C=C/c3cnc4ccccc4c3)CC1)CC2 (configuration not stated),1210
9,NC(=O)C1CCN(Cc2ccc(-c3ccc(-c4nc5cc(F)ccc5[nH]4)cc3)cc2)CC1,809
10,COc1ccc(Cl)cc1N1CCN(CCCNC(=O)c2ccc(-c3nc4cc5ccccc5cc4[nH]3)c(F)c2)CC1,804
11,Cc1cccc2nc(-c3ccc(-c4cccc(NC(=O)CCc5c[nH]cn5)c4)s3)[nH]c12,838
12,Fc1ccc(C=NNc2nc3ccccc3[nH]2)cc1,783
13,Oc1cccc(Nc2ccnc3cc(-c4cc5ccccc5o4)ccc23)c1,763
14,CN1CCN(c2cc(-c3cccc(C(F)(F)F)c3)nc(-c3ccncc3)n2)CC1,731
15,CCCCCCn1c(Sc2ccc(C#N)c([N+](=O)[O-])c2)nnc1-c1ccc(N(C)C)cc1,1070
16,Cc1c(CNCCCNc2cc(=O)c3ccccc3[nH]2)sc(C(F)=C(F)F)c1Br,836
17,CN(Cc1cc(C(F)(F)F)cc(C(F)(F)F)c1)C(=O)C1CNCC1c1ccc(F)cc1 (configuration not stated),828
18,CCCCCCCc1cc(O)c2c(c1)OC(C)(C)c1ccncc1-2,1150
19,Oc1ccc(OCc2ccccn2)cc1,980
20,CCNc1cc(C)nc(Nc2ccc(NS(=O)(=O)c3cc(OC)ccc3OC)cc2)n1,853
21,CCCCCCNC(=O)C1Cc2c([nH]c3ccc(C)cc23)C2(CCN(Cc3ccccc3)CC2)N1 (configuration not stated),982
22,CCOc1ccccc1CNc1nccc(NCc2ccccc2OC)n1,1490
23,O=C(Nc1ccc2c(c1)CCN(C1CCC1)CC2)c1ccc(-n2ccnc2)cn1,373
24,CCCCCCCCNc1c2ccc(Cl)cc2nc2ccc(OC)cc12,805
25,Cc1c(Cl)cccc1N=C(S)NN=Cc1ccccn1,603

row,SMILES,XC50 [nM]
1,CCn1ncc2c(N3CCCC3=O)cc(C(=O)N[C@@H](Cc3ccccc3)[C@H](O)CNC(C)(C)c3cccc(C(F)(F)F)c3)cc21,149
2,O=C(Nc1ccc(OC2CCN(Cc3ccc(F)cc3)CC2)cc1)c1cccs1,969
3,Cc1nc(C(=O)N2CCCC[C@H]2CNC(=O)c2ccc(-c3ccc(N4CCCC4=O)cc3C)cc2)c(-c2ccc(F)cc2)s1,459
4,CCCC[C@@H](C(=O)NCCc1ccc(Cl)cc1)N1C(=O)CCC1C(=O)Nc1ccc(Cl)c(Cl)c1 (some centres not stated),873
5,COC(=O)c1ccc(-c2ccc(C(=O)NCC3CCN(c4nc(N)c5cc(OC)c(OC)cc5n4)CC3)cc2)cc1,185
6,NC(=O)c1ccc(NCC(=O)Nc2cccc(-c3cccc(-c4nc5ccccc5[nH]4)c3)c2)cc1,987
7,C[C@H](NC(=O)c1c(CN2CCC(NC(=O)CC(C)(C)C)CC2)c(-c2cccs2)nc2ccccc12)C1CCCCC1,947
8,CN1CCN(c2ccc(Nc3c(C(N)=O)cnc4cc(-c5ccoc5)ccc34)cc2C(F)(F)F)CC1,785
9,Cn1cncc1C(=O)Nc1cccc(-c2ccc(-c3nc4cc(C(F)(F)F)ccc4[nH]3)cc2)c1,509
10,O=C(Cc1c[nH]cn1)Nc1ccc(-c2ccc(-c3nc4ccccc4[nH]3)s2)cc1,1060
11,O=C(Nc1ccc(F)c(C(F)(F)F)c1)NC1CCN(CCCCCNC(=O)C2CC2c2ccc(Cl)c(Cl)c2)CC1 (configuration not stated),663
12,Ic1cc(Nc2ncnc3ccsc23)ccc1OCc1ccccc1,773
13,O=C(N[C@H]1CCN(Cc2ccc(OC3CCN(Cc4ccccc4)CC3)c(Br)c2)C1)c1ccc(Cl)c(Cl)c1,783
14,Cc1nnc2c(NC(=O)NC3CCCC3)cc3cc(-c4ccc(CN(C)C)cc4)ccc3n12,1470
15,CN(Cc1ccccc1)C1CCN(c2cc(NC(=O)c3cccc(F)c3)ccn2)CC1,1510
16,CN(C)Cc1ccc(-c2ccc3c(Nc4ccc(Cl)cc4F)ccnc3c2)o1,241
17,COc1cccc(C2CCN(CCCCNC(=O)c3ccc(NC(=O)c4ccc(Cl)cc4)cc3)CC2)c1,965
18,COCCNCc1ccc(-c2cccc(CN(C(=O)CCC3CCCC3)C3CCN(Cc4ccccc4)CC3)c2)cc1,938
19,O=C(Nc1ccc2c(c1)CCCN2S(=O)(=O)c1cccs1)c1cc([N+](=O)[O-])ccc1Cl,845
20,CN(C)CCOC(=O)C1(O)CCC2CC1C2(C)C (configuration not stated),984
21,CCCOc1ccc(C(F)(F)F)cc1NC(=O)c1nc2nc(C)cc(C)n2n1,251
22,CO/C(=C\C=C\c1cc2cc(Cl)c(Cl)cc2[nH]1)C(=O)NCCCN1CCN(c2ccc(OC)cc2)CC1,700
